Reference: patent US10494414B2, “Immunoglobulin G-binding peptide” (KANEKA CORPORATION, priority 2014, dated 2019)

How the values were obtained:
[1] = system: Fab region; conditions: Non-patent Documents 1 and 2; cited from earlier work
[2] = system: Anti-RSV antibody - Fab; experiment: Biacore surface plasmon resonance affinity for IgG-Fab of anti-RSV monoclonal antibody; assay type: binding, human
From the text: (§1) A humanized monoclonal IgG product as a raw material was fragmented into a Fab fragment and a Fc fragment using papain, and only the Fab fragment was separated and purified. Hereinafter, a method for producing IgG-Fc/IgG-Fab derived from anti-RSV monoclonal antibody (generic name: Palivizumab) is described. The term “RSV” is an abbreviation of RS virus. In the present disclosure, when other IgG-Fc and IgG-Fab were used for evaluation, the fragments were basically prepared in a similar method.
(§2) Specifically, a humanized monoclonal IgG product (“Synagis” manufactured by CHUGAI PHARMACEUTICAL CO., LTD., in the case of anti-RS virus monoclonal agent) was dissolved in a buffer for papain treatment (0.1M AcOH—AcONa, 2 mM EDTA, 1 mM cysteine, pH 5.5), and agarose immobilized by papain (“Papain Agarose from papaya latex” manufactured by SIGMA) was added thereto. The mixture was incubated with stirring by a rotator at 37° C. for about 8 hours. The IgG-Fc was purified from the reaction mixture which contained both of a Fab fragment and a Fc fragment and which was separated from the agarose immobilized by papain by recovering the IgG-Fc as a flow-through fraction of an affinity chromatography using Kappa Select column (manufactured by GE Healthcare Bioscience). The IgG-Fab was purified by recovering the IgG-Fab as a flow-through fraction in an affinity chromatography using KanCapA column (manufactured by GE Healthcare Bioscience). The obtained crude IgG-Fc solution was subjected to purification by gel filtration chromatography using Superdex 75 10/300 GL column to obtain IgG-Fc solution. In the chromatography, a standard buffer was used for equilibration and separation. The obtained crude IgG-Fab solution was similarly subjected to purification. […]
(§3) The affinity of the peptide obtained in the above-described Example 1(2) for the Fc region and Fab region of anti-RSV monoclonal antibody was evaluated using a biosensor Biacore3000 (manufactured by GE Healthcare Bioscience) utilizing surface plasmon resonance. […]

[3] = molecular target: T1, Anti-RSV antibody - Fc (Homo sapiens, UniProt P01857); experiment: Biacore surface plasmon resonance affinity for IgG-Fc of anti-RSV monoclonal antibody; assay type: binding
T1 construct: a Fc region of a heavy chain is composed of CH2 and CH3; purchased CHUGAI PHARMACEUTICAL CO., LTD; Synagis
From the text: as §1, §2, §3

[4] = system: Anti-TNFα antibody - Fab; experiment: Biacore surface plasmon resonance affinity for IgG-Fab of anti-TNFα monoclonal antibody; assay type: binding
Method: (§4) The affinity of the peptide obtained in the above-described Example 1(2) for the Fc region and Fab region of anti-RSV monoclonal antibody was evaluated using a biosensor Biacore3000 (manufactured by GE Healthcare Bioscience) utilizing surface plasmon resonance. In the present Example, the IgG-Fc or IgG-Fab obtained in the above-described Example 2(1) was immobilized on a sensor tip, and the peptide solution was flowed across the sensor tip to detect the interaction between the two. The IgG-Fab or IgG-Fc was immobilized on a sensor tip CM5 by amine coupling method using N-hydroxysuccinimide (NHS) and N-ethyl-N′-(3-dimethylaminopropyl)carbodiimide hydrochloride (EDC), and ethanolamine was used for blocking. All of the sensor tip and reagents for immobilization was manufactured by GE Healthcare Bioscience. The IgG-Fab solution was diluted to about 10 times using a buffer for immobilization (10 mM AcOH—AcONa, pH 4.5), and the IgG-Fab was immobilized on the sensor tip in accordance with the protocol attached to the Biacore 3000. […]
(§5) Also, the affinity of the peptide according to the present invention (SEQ ID NO: 2) for IgG-Fab prepared from anti-EGFR monoclonal antibody (“Erbitux” sold by Bristol-Myers Squibb) and anti-TNFα monoclonal antibody (“Remicade” sold by Mitsubishi Tanabe Pharma Corporation) was evaluated. The IgG-Fab was prepared in a similar manner to the above-described (1), and the affinity was basically evaluated in a similar manner to the above-described (2). […]
Each peptide was prepared in a similar method to the above-described Example 1 except that the combination of single-stranded oligo DNAs shown in Table 3 was used for preparing expression plasmid. […] As representative data, the affinity for IgG-Fab of anti-TNFα monoclonal antibody was evaluated by a similar manner to the above-described Example 2. […] For example, the value in the left graph is logarithm (Log 10) of a value calculated by dividing an affinity constant (KA) of each peptide by an affinity constant of SEQ ID NO: 2. […]

[5] = system: Anti-EGFR antibody - Fab; experiment: Biacore surface plasmon resonance affinity for IgG-Fab of anti-EGFR monoclonal antibody; assay type: binding
Method: as §4, with “3000. In addition, a reference cell as negative control was also prepared by activating another flow cell on the tip with EDC/NHS and then immobilizing ethanolamine only. Peptide solutions having concentrations of 16 nM, 64 nM or 256 nM were prepared using a running buffer (20 mM NaH2PO4—Na2HPO4, 150 mM NaCl, 0.005% P-20, pH 7.4). Each peptide solution was added to the sensor tip in a flow rate of 40 μL/min for 1 minute. Bonding response curves at the time of addition (association phase, 1 minute) and after the addition (dissociation phase, 1 minute) were sequentially obtained at a measurement temperature of 25° C.” for “3000.”
as §5

[6] = system: IgG-Fab of anti-TNFα monoclonal antibody; experiment: Binding response versus peptide concentration on immobilized IgG-Fab (Biacore); conditions: about 10000 RU immobilized, peptide 25-200 nM, response 1 minute after addition, SEQ ID NO: 14 specifically 0.4 to 0.6
[7] = molecular target: T2, IgG-Fc of anti-TNFα monoclonal antibody (Homo sapiens, UniProt P01857); experiment: Binding response versus peptide concentration on immobilized IgG-Fc (Biacore); conditions: about 10000 RU immobilized, peptide 25-200 nM, response 1 minute after addition, SEQ ID NO: 14 specifically 0.4 to 0.6
T2 construct: a Fc region of a heavy chain is composed of CH2 and CH3; purchased Mitsubishi Tanabe Pharma Corporation Remicade

[8] = system: Fab fragment; experiment: Association constant of wild Protein G to Fab fragment in Biacore system; assay type: binding; conditions: 25° C., pH 7.4
From the text: For example, as a binding parameter, association constant (KA) and dissociation constant (KD) can be used ([NT] et al., “Real-Time Analysis Experimental Method for Interaction Between Biological Substances”, Springer-Verlag Tokyo, 1998, p. 41). An association constant between the present invention peptide and a Fc fragment or a Fab fragment can be measured by immobilizing a Fc fragment or a Fab fragment on a sensor tip and adding the present invention peptide into a flow channel under a condition of the temperature of 25° C. and pH 7.4 in Biacore system. In an experiment utilizing Biacore system, the order of a parameter may be largely changed depending on an experimental condition, an analysis method and/or the kind of used original IgG. Under such a circumstance, when an evaluation is also conducted by using a wild Protein G in the same experimental condition and analysis method, it becomes standard whether the measured association constant is larger or not in comparison with the association constant of wild Protein G to a Fab region. The performance of a conventional wild Protein G is not sufficient as a peptide which binds to both of a Fc region and a Fab region of an immunoglobulin G, since the binding force thereof to a Fab region is not sufficient. […] A wild Protein G is easily available as a commercial reagent for study. […]

[9] = Anti-RSV antibody - Fab immobilized, 25° C., pH 7.4, 1:1 binding model
[10] = Anti-RSV antibody - Fc immobilized, 25° C., pH 7.4, 1:1 binding model

Protein G: IgG-binding cell wall protein produced by Streptococcus sp. classified into Group G
association constant (KA) to a Fab region, times less than that to a Fc region [1]: 10 times

SEQ ID NO: 2: IgG-binding peptide (SpG mutant) having the amino acid sequence of SEQ ID NO: 2, with N-terminal Gly-Pro-Leu-Gly-Ser from the vector (TTYKLILNGKTLTGYTTAIAADAATAEIVLKQFANDNGIDGEWTYDDATKTFTVTE; N-terminal vector-derived residues; Immunoglobulin-binding peptide)
koff [2, 9]: 0.003 s⁻¹
kon [2, 9]: 66000 s/M
KA ([2]; Anti-RSV antibody - Fab, KA=kon/koff): 2e+07 M⁻¹
koff [3, 10]: 0.028 s⁻¹
kon [3, 10]: 97000 s/M
KA ([3]; Anti-RSV antibody - Fc, KA=kon/koff): 3.5e+06 M⁻¹
KA ([4]; KA=kon/koff): 4e+07 M⁻¹
koff ([4]; peptide 25, 100, 400 nM): 0.01 s⁻¹
kon ([4]; peptide 25, 100, 400 nM): 413000 s/M
KA ([5]; KA=kon/koff): 6.5e+07 M⁻¹
koff ([5]; peptide 25, 100, 400 nM): 0.039 s⁻¹
kon ([5]; peptide 25, 100, 400 nM): 252000 s/M

SEQ ID NO: 14: IgG-binding peptide; difference from SEQ ID NO: 2: Xaa21 = Asp, Xaa28 = Lys (TTYKLILNGKTLTGYTTAIADDAATAEKVLKQFANDNGIDGEWTYDDATKTFTVTE; Immunoglobulin-binding peptide)
inclination of approximate curve of binding response versus peptide concentration [6]: about 0.5
inclination of approximate curve of binding response versus peptide concentration [7]: about 0.5

wild Protein G: conventional wild Protein G, available as a commercial reagent for study
association constant KA to a Fab fragment, as an order [8]: about 10^5
